Experimental data from patent US20230277536A1, “METHODS AND COMPOSITIONS FOR TREATING EWING FAMILY OF TUMORS” (priority 2021, published 2023).

How the values were obtained:
[1] = system: A673 xenograft; experiment: Murine A673 xenograft Ewing tumor model
Experimental: The dosing schedules in FIG. 4B are as follows: YM155 monobromide, 3.5 mg/kg, 21-day-infusion with an osmotic pump; vincristine, 0.5 mg/kg, QW*3, IV; doxorubicin, 3.3 mg/kg, QW*3, IV; cyclophosphamide, 40 mg/kg, QW*3, IV. The dosing schedules in FIG. 4B are as follows: YM155 monobromide, 2 mg/kg, 21-day-infusion with an osmotic pump; ifosfamide, 30 mg/kg, QW*3, IV; etoposide, 7.5 mg/kg, QW*3, IP. […] The dosing schedules were as follows: YM155 monobromide, 3.5 mg/kg, 21-day-infusion with an osmotic pump; vincristine, 0.5 mg/kg, QW*3, IV; doxorubicin, 3.3 mg/kg, QW*3, IV; cyclophosphamide, 40 mg/kg, QW*3, IV.
To test for in vivo activity, a Ewing tumor model was generated by implanting either A673 or SK-N-MC cells into mice. When the tumor size reached 150 mm3, the mice were grouped randomly and injected with YM155 by 21-day infusion with an osmotic pump. The tumor size was measured every three days.

[2] = system: SK-N-MC xenograft; experiment: Murine SK-N-MC xenograft Ewing tumor model; type: in vivo, mice
[3] = system: EWS-FLI1; experiment: Western-blot analysis of EWS-FLI1 expression level; type: cell-based; conditions: A673 and SK-N-MC cells, 10 nM, 12-48 hrs; FIG. 5
Experimental: (§1) Western-blot analysis was performed to examine the suppression by YM155 on the expression level of EWS-FLI1, the protein product of EWSR1-FLI1 translocation, and its effector proteins MYC and cyclin D1. In brief, A673 and SK-N-MC cells seeded on 6-well plates were treated with 10 nM YM155 for 12-48 hrs. The cells were then harvested and lysed in a lysis buffer containing protease inhibitor cocktail (Beyotime, China) at 4C. The concentrations of total protein in the cell lysates were determined by BCA Protein Assay Kit (ThermoFisher, USA). Forty micrograms of total protein was used in each lane for SDS-PAGE and western-blot assay. Antibodies against EWS-FLI1, MYC, and cyclin D1 were used to detect the expression levels of the proteins. GAPDH was used as a loading control.

[4] = system: SK-N-MC cells; experiment: Apoptosis assays (Annexin V/PI and caspase 3 activity, flow cytometry); type: cell-based; conditions: 10 nM, 3 days drug exposure, vs DMSO, FIGS. 3A-3D
Experimental: (§2) Cellular apoptosis was then assayed with the Alexa Fluor™ 488 Annexin V/Dead cell apoptosis Kit (ThermoFisher®, USA) and GreenNuc™ live cell caspase 3 activity assay kit (Beyotime Biotechnology, China). Briefly, cells cultured in 6-well tissue culture plates were treated with 10 nM YM155 or DMSO (control). Following 3 days drug exposure, the cells were collected and assayed for apoptosis according to the manufacturers' instructions. For annexin V assay, the cell suspensions were incubated with Alexa Flour™ 488 labeled annexin V and Propidium Iodide (PI). For the caspase 3 activity assay, a caspase 3 substrate was added to generate fluorescent product. The cells were then analyzed on a BD LSR Fortessa cell analyzer. Flow cytometry data was analyzed with Flowjo software.

[5] = system: A673 cells; experiment: as above; type: cell-based; conditions: 10 nM, 3 days drug exposure, vs DMSO, FIGS. 2A-2D
Experimental: as §2

[6] = system: cyclin D1; experiment: Western-blot analysis of cyclin D1 expression level; type: cell-based; conditions: A673 and SK-N-MC cells, 10 nM, 12-48 hrs; FIG. 5
Experimental: as §1

[7] = system: MYC; experiment: Western-blot analysis of MYC expression level; type: cell-based; conditions: A673 and SK-N-MC cells, 10 nM, 12-48 hrs; FIG. 5
Experimental: as §1

[8] = system: SK-N-MC cell line; experiment: In vitro cell proliferation assay (EdU labeling, high-content screening); type: cell-based; conditions: EWSR1-FLI1 translocation, 72 hrs exposure, 2-fold dilutions from 200 nM, FIG. 1B
Experimental: (§3) In vitro cell proliferation assays were performed to test the sensitivity of Ewing tumor cell lines to treatment with YM155. The A673 and SK-N-MC cell lines, each of which have the EWSR1-FLI1 translocation that is characteristic of most cases of Ewing tumors, were seeded in 96-well plates at 2×10^3 cells/well and allowed to attach overnight at 37° C. and 5% CO2. The cells were exposed to YM155 at designated concentrations (2-fold serial dilutions starting from 200 nM) for 72 hrs.
(§4) Following drug exposure, the cells were labeled with 5-ethynyl-2′- deoxyuridine (EdU) to assess the tumor cell proliferation rates. The labeling lasted 4 hours in the presence of drug exposure. […]
(§5) The labeled cells were fixed with formaldehyde for 30 min, followed by staining with Hoechst 33342 in a buffer containing 0.5% triton X-100. The incorporated Edu was detected by Click-iT reaction where fixed cells were incubated with a reaction mixture containing 1X Click-iT EdU reaction buffer, CuSO4, and azide-conjugated fluorescent dye in the dark. […]
(§6) The stained tumor cells were imaged by a high-content screening (HCS) platform (Thermo Scientific Cellomics Array Scan XTi HCS reader). […] From the images fluorescent signals for cell nucleus and the EdU incorporated in newly synthesized DNA were obtained from the HCS reader. […] The IC50 was calculated from the dose response curve of drug inhibition.

[9] = system: A673 cell line; experiment: as above; type: cell-based; conditions: A673, EWSR1-FLI1 translocation; 72 hrs exposure, 2-fold dilutions from 200 nM; FIG. 1A
Experimental: as §3, §4, §5, §6

## 1-(2-Methoxyethyl)-2-methyl-4,9-dioxo-3-(pyrazin-2-ylmethyl)-4,9-dihydro-1H-naphtho[2,3-d] imidazolium bromide [YM155]
[1]; A673 xenograft in mice, 21-day infusion with osmotic pump, 3.5 or 2 mg/kg, FIGS. 4A-4B
  effect on tumor growth: strong inhibitory effect on tumor growth
[1]; A673 xenograft, YM155 2 mg/kg 21-day infusion vs ifosfamide 30 mg/kg QW*3 IV, etoposide 7.5 mg/kg QW*3 IP
  efficacy compared with ifosfamide/etoposide combination therapy: superior
[1]; A673 xenograft, YM155 3.5 mg/kg 21-day infusion vs vincristine 0.5 mg/kg QW*3 IV
  efficacy compared with vincristine standalone therapy: superior
[1]; A673 xenograft, YM155 3.5 mg/kg 21-day infusion vs vincristine 0.5, doxorubicin 3.3, cyclophosphamide 40 mg/kg QW*3 IV
  efficacy compared with vincristine/doxorubicin/cyclophosphamide triple therapy: superior
[2]; SK-N-MC xenograft in mice, 3.5 mg/kg, 21-day infusion with osmotic pump, FIG. 4C
  effect on tumor growth: strong inhibitory effect on tumor growth
[2]; SK-N-MC xenograft, YM155 3.5 mg/kg 21-day infusion vs vincristine 0.5 mg/kg QW*3 IV
  efficacy compared with vincristine standalone therapy: superior
[2]; SK-N-MC xenograft, YM155 3.5 mg/kg 21-day infusion vs vincristine 0.5, doxorubicin 3.3, cyclophosphamide 40 mg/kg QW*3 IV
  efficacy compared with vincristine/doxorubicin/cyclophosphamide triple therapy: superior
[3]
  protein expression of EWS-FLI1: inhibited protein expression
[4]
  apoptosis induction: induced strong apoptosis
[5]
  apoptosis induction: induced strong apoptosis
[6]
  protein expression of cyclin D1: inhibited protein expression
[7]
  protein expression of MYC: inhibited protein expression
[8]
  sensitivity to YM155 in in vitro cell proliferation assay: highly sensitive
[9]
  sensitivity to YM155 in in vitro cell proliferation assay: highly sensitive
